The test has as its system Calf thymus DNA. The experiment in a line: DNA intercalation assay (DNA/methyl green colorimetric assay). Type of test: binding. The following applies: three independent experiments. Here is the method: The data represented the mean of three independent experiments in triplicate and were expressed as means ± SD. […]
4.2.2. DNA intercalation assay (DNA/methyl green colorimetric assay)
Affinity of some compounds for DNA-binding was examined in vitro using DNA/methyl green assay using doxorubicin as a positive control. In this test, a mixture of methyl green (20 mg) and Calf thymus DNA (10 mg) (Sigma– Aldrich) were suspended in 0.05 M TrisHCl buffer (100 mL, pH 7.5) containing 7.5 mM MgSO4. This mixture was stirred continuously for 24 h at 37 °C. Then, ethanolic solution of the test compounds was pitted into the wells of a 96-well microtiter tray at a concentration of 10, 100 and 1000 µM. The excess solvent was removed from each well under vacuum, with subsequent addition of 200 µL of the DNA/methyl green solution. The test samples were incubated for 24 h in dark at ambient temperature. After that, absorbance of each sample was determined at 642.5–645 nm. In this test, the methyl green dye reversibly binds to DNA to form persistent colored complex of DNA/methyl green. This color still stables at neutral pH. When the DNA intercalators were added, the methyl green was displaced from DNA with addition of H2O molecule to the dye resulting in formation of the colorless carbinol leading to a decrease in spectrophotometric absorbance. ΔA value (the difference between DNA/methyl green complex and free cabinol) provides the simplest means for detecting the DNA-binding affinity and relative binding strength. IC50′s were determined by linear regression of data plotted on a semi -log scale and the data were compared with doxorubicin as standard DNA intercalator . […]

The record followed here is publication PMC8667898, “Topo II inhibition and DNA intercalation by new phthalazine-based derivatives as potent anticancer agents: design, synthesis, anti-proliferative, docking, and in vivo studies” (Journal of Enzyme Inhibition and Medicinal Chemistry, 2021).

One may read the IC50 as the concentration that gives 50% inhibition.

The compound `CCCc1nnc2c3ccccc3c(NN=Cc3ccc([N+](=O)[O-])cc3)nn12` [Compound 9d, 6-[2–(4-Nitrobenzylidene)hydrazineyl]-3-propyl-[1,2, 4]triazolo[3,4-a]phthalazine] showed an IC50 of 26.2 ± 1.14 µM.
